One compound from patent US20100173936A1 (priority 2008, published 2010) can be followed below.

SMILES strings stand for the structures.

Common to all, as to format: in vivo, human
Data set [1] can be described thus: Blood pressure in randomized crossover study, Type II diabetes mellitus with hypertension. The protocol: (§1) Subjects with hypertension requiring therapy were excluded from the study as one of the goals of the study was to measure the anti-inflammatory effects of an ACE inhibitor independently of its blood pressure lowering effects. Subjects on lipid lowering therapy (e.g., statin therapy) at the time of enrollment continued their therapy without change throughout the study. Written informed consent was obtained from all subjects. All subjects were evaluated at the time of enrollment. The subjects received nutritional counseling and were advised to record their weight and calorie counts weekly. A nutritionist was available for counseling throughout the study. Blood samples were drawn before and at the end of therapy at a similar time of day while subjects were fasting. […] After the initial 8 weeks of treatment, there was a 4 week washout period. The subjects then received in a crossover fashion the alternate pharmacological regimen. Allocation concealment was maintained until the end of the study. Pill counts were obtained at the end of the treatment period to determine compliance (13). Subjects were advised to self-administer half of the full dose during the initial 2 days of therapy, after which they were to take the full study dose at the same time each morning. The total study period was 22 weeks. […] Blood pressure was checked with at least three separate measurements that were taken approximately five minutes apart using an Omron sphygmomanometer.

Another data set concerns glycosylated hemoglobin. Kind of data set: Glycosylated hemoglobin in the diabetic hypertensive crossover study.
A short description of data set [2]: Adverse events in the diabetic hypertensive crossover study (cough, angioedema, potassium/creatinine, hypotension).
Description: as §1, with “subjects.” for “subjects. All subjects were evaluated at the time of enrollment. The subjects received nutritional counseling and were advised to record their weight and calorie counts weekly. A nutritionist was available for counseling throughout the study. Blood samples were drawn before and at the end of therapy at a similar time of day while subjects were fasting.”

The test system of the next data set is urinary albumin. Kind of data set: Proteinuria, 24 hour urine collection, standard chemical protein analysis. The settings on record: versus pretreatment, in words (FIG. 1). Here is the method:
Upon collection of each urine sample, the urine was quickly analyzed, and protein analysis was performed via a standard chemical analysis (Quest Laboratory, Scranton, Pa.).

Data set [3] is described as follows: Brachial artery reactivity testing (BART), flow-mediated vasodilation, diabetic hypertensive subjects. The source says: Briefly, the subjects were positioned in the supine position with the arm in a comfortable position for imaging the brachial artery. A blood pressure cuff was then placed on the forearm, after which a baseline rest image was acquired. The brachial artery was imaged above the antecubital fossa in the longitudinal plane, and a segment with clear anterior and posterior intimal interfaces between the lumen and vessel wall was selected for continuous 2D gray-scale imaging. Blood flow velocity was estimated by time-averaging the pulsed Doppler velocity signal obtained from a mid-artery sample volume. […] After cuff deflation, the longitudinal image of the artery was recorded continuously from 30 seconds before to 2 minutes after cuff deflation. […] The diameter of the brachial artery was measured from longitudinal images in which the lumen-intima interface was visualized on both the near (anterior) and far (posterior) walls. Once the image for analysis was chosen, the boundaries for diameter measurements were identified manually with electronic calipers (Medical Imaging Application Vascular Tools, Coralville, Iowa), and the average diameter was determined from at least 3 different diameter measurements determined along a segment of the vessel. Brachial artery diameter was measured at the same time in the cardiac cycle by use of electrocardiogram (ECG) gating during image acquisition. […]

For a further data set, the system named is leptin. Kind of data set: Serum leptin enzyme immunoassay (EIA). The protocol: (§2) An aliquot of each sample was then drawn, and an enzyme immunoassay (EIA; Cayman Chemical, Ann Arbor, Mich.) for serum adiponectin and leptin was performed on each sample in triplicate according to well-established protocols (45). A total of 50 μl of serum were used for the analysis. The levels of total serum adiponectin and leptin were determined on a plate reader at an optical density of 420 nm. No interference by quinapril or its metabolites was found in any of the assays.

A further data set deals with adiponectin. Kind of data set: Serum adiponectin enzyme immunoassay (EIA). The protocol:
as §2

The nature of data set [4]: HOMA-IR index of insulin resistance. The source says:
Without wishing to be bound by any particular theory, it was thought that insulin resistance can play an important role in hyperglycemia in type 2 diabetic subjects, and can eventually induce the development of diabetic microangiopathy (20). Indeed, to achieve glycemic control and prevent these complications, several oral hypoglycemic agents that improve insulin resistance, such as thiazolidinediones and biguanides, have been developed and are currently available clinically (21,22). Furthermore, insulin resistance is proposed to play important roles in the pathogenesis of cardiovascular diseases (23,24), the most common cause of death in diabetic subjects. Therefore, a clinical and epidemiological evaluation was undertaken with the subjects described in Example 1 in order to evaluate insulin resistance simply and accurately in the individual diabetic subjects with hypertension. Many investigators have studied simple surrogate indices of insulin resistance in comparison with the index assessed by euglycemic-hyperinsulinemic clamp (clamp-IR); for example, fasting plasma insulin (25), homeostasis model assessment (HOMA) of insulin resistance (HOMA-IR) (26), and the fasting glucose-to-insulin ratio (27). […]

A further data set deals with LDL. Kind of data set: LDL oxidation lag time, CuSO4 assay on LDL isolated from treated subjects. The source says:
Although, the mechanisms of this damage have yet to be clearly established and may involve the inactivation of nitric oxide (NO) by oxygen-derived free radicals such as superoxide (33), it is clear that this inflammatory response affects the gene expression of regulatory molecules, such as vascular cell adhesion molecule and tumor necrosis factor-alpha (34-36), which in turn promote foam cell formation. In this regard, a reduction in NO levels along with an increase in ox-LDL may function as immunomodulators of the atherosclerotic process (37) and, indeed, recent studies imply that ox-LDL stimulates an immunological response through the formation of autoantibodies, resulting in further damage to the endothelium and acceleration of the atherosclerotic process (38,39). This antibody response may represent a marker for the extent of atherosclerosis seen in individuals. […] The LDL was then oxidized to ox-LDL by an in vitro assay utilizing CuSO4 (52). The lag time indicating the susceptibility of the LDL to oxidize was measured using a spectrophotometer at […] (42). Values were performed in triplicate.

A further data set relates to PAI-1. Kind of data set: Serum soluble PAI-1 ELISA in subjects with metabolic syndrome. The settings on record: after four weeks of therapy, quinapril 20 mg/day, alpha lipoic acid 300 mg/day, from baseline. Here is the method:
[…] Blood was collected at these time periods, and serum levels of soluble PAI-1 and VCAM-1 were determined using an enzyme-linked immunosorbent assay (ELISA). Further, endothelial function in each of the subjects was also determined by flow mediated dilation (FMD) of the brachial artery, utilizing the high resolution ultrasound technique described herein above.
(In general: In an ELISA, binding on a coated surface is turned into a signal by an enzyme label.)

[5] abbreviates: diabetic hypertensive subjects, quinapril 40 mg/day, alpha lipoic acid 600 mg/day, 8 weeks.
[6] abbreviates: serum, diabetic hypertensive subjects.

Regarding `CCOC(=O)[C@H](CCc1ccccc1)N[C@@H](C)C(=O)N1Cc2ccccc2C[C@H]1C(=O)O` [Quinapril, quinapril], in data set [1] (setting [5]), the “Diastolic BP” value turned out to be 77.9 ± 10.0 mmHg. Besides, the “Systolic BP” value in data set [1] (diabetic hypertensive subjects, quinapril 40 mg/day, alpha lipoic acid 600 mg/day, 8 weeks, mean ± SD) turned out to be 133.4 ± 11.7 mmHg. Besides, in [1] (versus pretreatment, in words), the “change in systolic and diastolic blood pressure after the follow-up period” value is “significant reduction”. For the same compound, in the data set on glycosylated hemoglobin (setting [5]), the “Glycosylated Hgb” value is on record as 7.6 ± 1.5%. Also, in the data set with glycosylated hemoglobin (from pretreatment and between the two treatment arms, in words), the “change in glycosylated hemoglobin (Hgb)” value was “no significant change”. The “hypotension (systolic BP less than 100 mm Hg)” value in data set [2] (during the study) is reported as “No subject”. Further, in data set [2] (number of subjects affected), the “rise in serum potassium or creatinine of greater than 20 percent” value was 1 out of 40. The incidence of cough in [2] (quinapril 40 mg/day, alpha lipoic acid 600 mg/day) is listed as 14%. Besides, in data set [2] (throughout the study), the angioedema entry is recorded as “No angioedema”. In the data set with urinary albumin, the “ratio of urinary albumin to creatinine” value is recorded as “reduced significantly” and the urinary albumin entry is “reduced significantly”. For the same compound, in data set [3] (at 24 weeks as printed), the “increase in flow mediated dilation of the brachial artery as compared to baseline” value is listed as 59%. Besides, the “flow mediated dilation of the brachial artery” value in data set [3] (post-treatment, pretreatment 3.86±0.55 percent) worked out at 6.02±0.80%. The Leptin in the data set on leptin (setting [6]) is 51% of % of pretreatment. Also, the “serum levels of leptin” value with leptin (versus pretreatment, in words) is reported as “significantly reduced”. For the same compound, the “serum levels of adiponectin” value with adiponectin (over pretreatment, in words) is “significantly increased”. The Adiponectin with adiponectin (setting [6]) is 122% of % of pretreatment. In addition, in [4] (end of treatment, pretreatment 3.01±0.33 U/ml), the serum HOMA-IR was 1.83 ± 0.25. Further, the “reduction in HOMA-IR from pretreatment baseline” value in data set [4] (in vivo) is on record as 40%. Further, in the data set on LDL (human, in vivo), the “increase of lag time of LDL oxidation from pretreatment” value was 23%. Moreover, in the data set with LDL (post-treatment), the “lag time of LDL oxidation, Post-treatment” value came out at 71.0 ± 13.9 s. Also, in the data set with PAI-1, the “reduction of serum PAI-1 levels” value is on record as 22%.
